Measurements: ChEMBL document CHEMBL1130750, “Heteroatom-substitution as a strategy for increasing the potency of competitive NMDA antagonists” (Bioorg Med Chem Lett, 1998)

Experiments:
Glutamate NMDA receptor [1] = assay: Compound was tested in vitro for inhibition of binding of [3H]-CGS- 19755 radioligand to NMDA receptor in rat brain membranes; assay type: cell membranes
Glutamate NMDA receptor [2] = assay: Compound was tested in vitro for its ability to inhibit depolarizations induced by 40 uM NMDA in a cortical slice(NMDA antagonist); assay type: functional
Mus musculus = assay: In vivo minimum effective dose required to block NMDA induced lethality in Mice following i.p. administration; assay type: functional; conditions: ip, read-out: MED
Glutamate NMDA receptor [3] = assay: In vitro ability to inhibit depolarizations induced by 40 uM NMDA in a cortical slice (NMDA antagonist); assay type: functional
Glutamate NMDA receptor [4] = assay: Compound was tested in vitro for its ability to inhibit depolarizations induced by 40 uM NMDA in a cortical slice (NMDA antagonist); assay type: functional
[5] = biological target: T1, Glutamate NMDA receptor (Rattus norvegicus) (UniProt P35439+Q00959+Q00960+Q00961+Q62645+Q8VHN2+Q9R1M7); assay: In vitro percent inhibition of depolarizations induced by 3.2 uM NMDA in a cortical slice ( NMDA antagonist); assay type: functional
[6] = biological target: T1, Glutamate NMDA receptor (Rattus norvegicus); assay: In vitro percent inhibition of depolarizations induced by 10 uM NMDA in a cortical slice (NMDA antagonist); assay type: functional

O=C(O)[C@H]1C[C@@H](CSc2nn[nH]n2)CCN1
IC50 (Glutamate NMDA receptor [1]): 1300 nM

O=C(O)[C@H]1C[C@@H](CCc2nnn[nH]2)CCN1
IC50 (Glutamate NMDA receptor [2]): 8100 nM
IC50 (Glutamate NMDA receptor [1]): 2300 nM
minimal effective dose (Mus musculus): 20 mg/kg

O=C(O)[C@H]1C[C@@H](CCCc2nnn[nH]2)CCN1
IC50 (Glutamate NMDA receptor [3]): 12400 nM
minimal effective dose (Mus musculus): 10 mg/kg

O=C(O)[C@H]1C[C@@H](Cc2nnn[nH]2)CCN1
IC50 (Glutamate NMDA receptor [1]): 17 nM
minimal effective dose (Mus musculus): 5 mg/kg

O=C(O)[C@H]1C[C@@H](OCc2nn[nH]n2)CCN1
IC50 (Glutamate NMDA receptor [1]): 280 nM
minimal effective dose (Mus musculus): 2.5 mg/kg
IC50 (Glutamate NMDA receptor [4]): 4700 nM

O=C(O)[C@H]1C[C@H](Sc2nn[nH]n2)CCN1
inhibition [5]: 20%
inhibition [6]: 75%
IC50 (Glutamate NMDA receptor [1]): 75 nM

O=C(O)[C@H]1C[C@@H](COCc2nn[nH]n2)CCN1
IC50 (Glutamate NMDA receptor [1]): 8300 nM
minimal effective dose (Mus musculus): 80 mg/kg
IC50 (Glutamate NMDA receptor [4]): 34500 nM

O=C(O)[C@H]1C[C@@H](Sc2nn[nH]n2)CCN1
IC50 (Glutamate NMDA receptor [1]): 110 nM
